Read-outs that look alike come from different tables or passages of the source.
Key:
[1] = system: RdRp; parameters: method as in ref 28 (a number printed in a supplementary file, which may have a reference list of its own: not looked up in the article's list); conditions: PDB 4WTG; read-out: Binding affinity to RdRp (IC50); cited from earlier work
[2] = system: SARS-CoV-2; assay: microbe, parasite or virus in culture; type: cell-based; conditions: Severe acute respiratory syndrome coronavirus 2, Calu-3, 24 h, Calu-3 cells, MOI 0.5, 24 h
[3] = system: SARS-CoV-2; assay: microbe, parasite or virus in culture; conditions: Severe acute respiratory syndrome coronavirus 2, Vero, 24 h, read-out: SARS-CoV-2 IC50 in Vero cells
[4] = biological target: M^pro (Severe acute respiratory syndrome coronavirus 2, UniProt P0DTD1); type: biochemical; conditions: FRET assay, 0.1 to 50 μM
[5] = Cytotoxicity (CC50) in Calu-3 cells; conditions: human
[6] = read-out: Approx. Cmax (maximum serum concentration); rat, oral; cited from earlier work
[7] = Cytotoxicity (CC50) in Vero cells; conditions: African green monkey
[8] = biological target: SARS-CoV-2 RdRp (Severe acute respiratory syndrome coronavirus 2, UniProt P0DTD1); assay: RdRp enzyme assay kit; type: biochemical; parameters: dose or concentration left out as unconfirmed; conditions: positive control, even at high concentrations
[9] = system: SARS-CoV-2; assay: Checkerboard drug combination assay, SARS-CoV-2 inhibition in Vero cells; type: cell-based; conditions: Severe acute respiratory syndrome coronavirus 2, Vero, read-out: Relative viral inhibition (%); for inhibition at 0.63 µM: Remdesivir 0.63 μM; for inhibition at 1.26 µM: Remdesivir 1.26 μM; for inhibition at 2.52 µM: Remdesivir 2.52 μM; for inhibition at 5.05 µM: Remdesivir 5.05 μM; for inhibition at 10.09 µM: Remdesivir 10.09 μM; for inhibition at 20.18 µM: Remdesivir 20.18 μM; for inhibition at 40.36 µM: Remdesivir 40.36 μM
[10] = in vitro; conditions: human
[11] = system: SARS-CoV-2; conditions: assay validation with reference drugs
[12] = in vitro; conditions: African green monkey
[13] = read-out: Approx. Cmax (maximum serum concentration); human, intravenous injection; cited from earlier work
[14] = system: SARS-CoV-2; assay: in vitro; conditions: African green monkey
[15] = Checkerboard drug combination assay, cell viability of Vero cells; conditions: African green monkey, Vero cells (ATCC CCL-81), Relative cell viability (%); for viability at 24 h, 0.63 μM: Remdesivir 0.63 μM; for viability at 24 h, 1.26 μM: Remdesivir 1.26 μM; for viability at 24 h, 2.52 μM: Remdesivir 2.52 μM; for viability at 24 h, 5.05 μM: Remdesivir 5.05 μM; for viability at 24 h, 10.09 μM: Remdesivir 10.09 μM; for viability at 24 h, 20.18 μM: Remdesivir 20.18 μM; for viability at 24 h, 40.36 μM: Remdesivir 40.36 μM
[16] = system: COVID-19; conditions: cited from earlier work
[17] = system: RdRp; parameters: method as in ref 29 (a number printed in a supplementary file, which may have a reference list of its own: not looked up in the article's list); conditions: PDB 1T05; read-out: Binding affinity to RdRp (IC50); cited from earlier work
[18] = system: Mpro; conditions: read-out: Binding affinity to Mpro (IC50); PDB 6W63; cited from earlier work

CC(C)OC(=O)[C@H](C)N[P@](=O)(OC[C@H]1O[C@@H](n2ccc(=O)[nH]c2=O)[C@](C)(F)[C@@H]1O)Oc1ccccc1 [6GS (sofosbuvir)]
IC50 [1]: 0.064 µM

Cc1cc(O)c2c(c1)C(=O)c1cc(O)cc(O)c1C2=O [Emodin]
IC50 [2]: 27.9 µM | IC50 [3]: 31.4 µM | inhibitory activity against M^pro [4]: showed inhibitory activities | CC50 at 24 h [5]: > 50 µM | Cmax [6]: ~0.078 µM | CC50 at 24 h [7]: > 50 µM

N#C[C@@]1(c2ccc3c(N)ncnn23)O[C@H](COP(=O)(O)OP(=O)(O)OP(=O)(O)O)[C@@H](O)[C@H]1O [RDV-TP, remdesivir triphosphate]
activity in RdRp assay [8]: did not show activity

CCC(CC)COC(=O)[C@H](C)N[P@](=O)(OC[C@H]1O[C@@](C#N)(c2ccc3c(N)ncnn23)[C@H](O)[C@@H]1O)Oc1ccccc1 [Remdesivir]
inhibition at 0.63 µM ([9]; Fig. 4A, Omipalisib 0.00 μM): 4% | inhibition at 1.26 µM ([9]; Fig. 4A, Omipalisib 0.00 μM): 4% | inhibition at 2.52 µM ([9]; Fig. 4A, Omipalisib 0.00 μM): 1% | inhibition at 5.05 µM ([9]; Fig. 4A, Omipalisib 0.00 μM): 20% | inhibition at 10.09 µM ([9]; Fig. 4A, Omipalisib 0.00 μM): 55% | inhibition at 20.18 µM ([9]; Fig. 4A, Omipalisib 0.00 μM): 81% | inhibition at 40.36 µM ([9]; Fig. 4A, Omipalisib 0.00 μM): 89% | inhibition at 0.63 µM ([9]; Fig. 4G, Tipifarnib 0.00 μM): 1% | inhibition at 1.26 µM ([9]; Fig. 4G, Tipifarnib 0.00 μM): 3% | inhibition at 2.52 µM ([9]; Fig. 4G, Tipifarnib 0.00 μM): 16% | inhibition at 5.05 µM ([9]; Fig. 4G, Tipifarnib 0.00 μM): 54% | inhibition at 10.09 µM ([9]; Fig. 4G, Tipifarnib 0.00 μM): 91% | inhibition at 20.18 µM ([9]; Fig. 4G, Tipifarnib 0.00 μM): 97% | inhibition at 40.36 µM ([9]; Fig. 4G, Tipifarnib 0.00 μM): 98% | IC50 [2]: 2.49 µM | CC50 [10]: > 50 µM | IC50 [3]: 10.1 µM | antiviral activity against SARS-CoV-2 in Vero cells [11]: showed antiviral activity | CC50 [12]: > 50 µM | Cmax [13]: ~9 µM | selectivity ratio [14]: 4.96 | viability at 24 h, 0.63 μM ([15]; Fig. 4B, Omipalisib 0.00 μM): 86% | viability at 24 h, 1.26 μM ([15]; Fig. 4B, Omipalisib 0.00 μM): 87% | viability at 24 h, 2.52 μM ([15]; Fig. 4B, Omipalisib 0.00 μM): 87% | viability at 24 h, 5.05 μM ([15]; Fig. 4B, Omipalisib 0.00 μM): 91% | viability at 24 h, 10.09 μM ([15]; Fig. 4B, Omipalisib 0.00 μM): 92% | viability at 24 h, 20.18 μM ([15]; Fig. 4B, Omipalisib 0.00 μM): 93% | viability at 24 h, 40.36 μM ([15]; Fig. 4B, Omipalisib 0.00 μM): 93% | viability at 24 h, 0.63 μM ([15]; Fig. 4H, Tipifarnib 0.00 μM): 88% | viability at 24 h, 1.26 μM ([15]; Fig. 4H, Tipifarnib 0.00 μM): 90% | viability at 24 h, 2.52 μM ([15]; Fig. 4H, Tipifarnib 0.00 μM): 94% | viability at 24 h, 5.05 μM ([15]; Fig. 4H, Tipifarnib 0.00 μM): 97% | viability at 24 h, 10.09 μM ([15]; Fig. 4H, Tipifarnib 0.00 μM): 95% | viability at 24 h, 20.18 μM ([15]; Fig. 4H, Tipifarnib 0.00 μM): 98% | viability at 24 h, 40.36 μM ([15]; Fig. 4H, Tipifarnib 0.00 μM): 94% | patients with clinical improvement ([16]; 36 out of 53 patients with severe illness): 68% | average recovery time ([16]; COVID-19 patients, vs 15 d placebo): 11 days | clinical benefits ([16]; severe COVID-19 patients): no statistically significant clinical benefits

C[C@H](Cn1cnc2c(N)ncnc21)OCP(=O)(O)O [TNV (tenofovir)]
IC50 [17]: 1.3 µM

CC(C)(C)c1ccc(N(C(=O)c2cnc[nH]2)[C@@H](C(=O)NC2CCCCC2)c2cccnc2)cc1 [X77]
IC50 [18]: 2.3 µM

— article PMC8325362, “Drugs repurposed for COVID-19 by virtual screening of 6,218 drugs and cell-based assay” (Proceedings of the National Academy of Sciences of the …, 2021)
